US12612416B2, “Modulators of cystic fibrosis transmembrane conductance regulator” (VERTEX PHARMACEUTICALS INCORPORATED, priority 2020, dated 2026)
Where two headings read alike, the source gives them in different places.

What was measured:
[1] = amide bond, 13-membered ring, HATU/DIEA, 25.0 °C
F508del in NIH 3T3 cells = molecular target: T1, F508del in NIH 3T3 cells (Homo sapiens, UniProt P13569, DEL508-508); assay: 3T3 assay: membrane potential optical assay for F508del correction; assay type: cell-based, mouse; details: F508del NIH 3T3 cells; for EC50: compound incubation 18-24 hours at 37° C., forskolin activation; for 3T3 Max Activity: efficacy compared to lumacaftor in combination with acutely added 300 nM Ivacaftor
T1 construct: expressed in transfected cells
Source text: The assay utilizes fluorescent voltage sensing dyes to measure changes in membrane potential using a fluorescent plate reader (e.g., FLIPR III, Molecular Devices, Inc.) as a readout for increase in functional F508del in NIH 3T3 cells. The driving force for the response is the creation of a chloride ion gradient in conjunction with channel activation by a single liquid addition step after the cells have previously been treated with compounds and subsequently loaded with a voltage sensing dye.
To identify correctors of F508del, a single-addition HTS assay format was developed. This HTS assay utilizes fluorescent voltage sensing dyes to measure changes in membrane potential on the FLIPR III as a measurement for increase in gating (conductance) of F508del in F508del NIH 3T3 cells. The F508del NIH 3T3 cell cultures were incubated with the corrector compounds at a range of concentrations for 18-24 hours at 37° C., and subsequently loaded with a redistribution dye. The driving force for the response is a Cl^− ion gradient in conjunction with channel activation with forskolin in a single liquid addition step using a fluorescent plate reader such as FLIPR III.
Bath Solution #1: (in mM) NaCl 160, KCl 4.5, CaCl2) 2, MgCl2 1, HEPES 10, pH 7.4 with NaOH.
Chloride-free bath solution: Chloride salts in Bath Solution #1 (above) are substituted with gluconate salts.
NIH3T3 mouse fibroblasts stably expressing F508del are used for optical measurements of membrane potential. The cells are maintained at 37° C. in 5% CO2 and 90% humidity in Dulbecco's modified Eagle's medium supplemented with 2 mM glutamine, 10% fetal bovine serum, 1×NEAA, b-ME, 1×pen/strep, and 25 mM HEPES in 175 cm^2 culture flasks. For all optical assays, the cells were seeded at ˜20,000/well in 384-well Matrigel-coated plates. For the correction assays, the cells are cultured at 37° C. with and without compounds for 16-24 hours.

[2] = amide bond, HATU/DIEA, DMF, 25.0 °C, 0.083 h
[3] = molecular target: T2, CFTR-mediated chloride transport in human intestinal epithelial enteroid cells (Homo sapiens, UniProt P13569); assay: Membrane potential dye, Enteroid Assay B; assay type: cell-based
Method: (§1) Base medium (ADF+++) consisted of Advanced DMEM/Ham's F12, 2 mM Glutamax, 10 mM HEPES, […] penicillin/streptomycin.
(§2) Intestinal enteroid maintenance medium (IEMM) consisted of ADF+++, 1×B27 supplement, 1×N2 supplement, 1.25 mM N-acetyl cysteine, 10 mM Nicotinamide, 50 ng/mL hEGF, 10 nM Gastrin, 1 μg/mL hR-spondin-1, 100 ng/mL hNoggin, TGF-b type 1 inhibitor A-83-01, 100 μg/mL Primocin, 10 μM P38 MAPK inhibitor SB202190.
(§3) Bath 1 Buffer consisted of 1 mM MgCl2, 160 mM NaCl, 4.5 mM KCl, 10 mM HEPES, 10 mM Glucose, 2 mM CaCl2).
(§4) Chloride Free Buffer consisted of 1 mM Magnesium Gluconate, 2 mM Calcium Gluconate, 4.5 mM Potassium Gluconate, 160 mM Sodium Gluconate, 10 mM HEPES, 10 mM Glucose.
(§5) BathI Dye Solution consisted of Bath 1 Buffer, 0.04% Pluronic F127, 20 μM Methyl Oxonol, 30 μM CaCCinh-A01, 30 μM Chicago Sky Blue.
(§6) Chloride Free Dye Solution consisted of Chloride Free Buffer, 0.04% Pluronic F127, 20 μM Methyl Oxonol, 30 μM CaCCinh-A01, 30 μM Chicago Sky Blue.
(§7) Chloride Free Dye Stimulation Solution consisted of Chloride Free Dye Solution, 10 μM forskolin, 100 μM IBMX, and 300 nM Compound III.
(§8) Human intestinal epithelial enteroid cells were obtained from the Hubrecht Institute for Developmental Biology and Stem Cell Research, Utrecht, The Netherlands and expanded in T-Flasks as previously described (Dekkers J F, Wiegerinck C L, de Jonge H R, Bronsveld I, Janssens H M, de Winter-de Groot K M, Brandsma A M, de Jong N W M, Bijvelds M J C, Scholte B J, Nieuwenhuis E E S, van den Brink S, Clevers H, van der Ent C K, Middendorp S and M Beekman J M. A functional CFTR assay using primary cystic fibrosis intestinal organoids. Nat Med. 2013 July; 19(7):939-45.).
(§9) Cells were recovered in cell recovery solution, collected by centrifugation at 650 rpm for 5 minutes at 4° C., resuspended in TrypLE and incubated for 5 minutes at 37° C. Cells were then collected by centrifugation at 650 rpm for 5 minutes at 4° C. and resuspended in IEMM containing 10 μM ROCK inhibitor (RI). The cell suspension was passed through a 40 μm cell strainer and resuspended at 1×10^6 cells/mL in IEMM containing 10 μM RI. Cells were seeded at 5000 cells/well into multi-well plates and incubated for overnight at 37° C., 95% humidity and 5% CO2 prior to assay.
(§10) Enteroid cells were incubated with test compound in IEMM for 18-24 hours at 37° C., 95% humidity, and 5% C02. […] Briefly, cells were washed 5 times in Bath 1 Buffer. Bath 1 Dye Solution was added and the cells were incubated for 25 minutes at room temperature. Following dye incubation, cells were washed 3 times in Chloride Free Dye Solution. Chloride transport was initiated by addition of Chloride Free Dye Stimulation Solution and the fluorescence signal was read for 15 minutes. […] Chloride transport was then expressed as a percentage of the chloride transport following treatment with 1 μM (14S)-8-[3-(2-{Dispiro[2.0.2.1]heptan-7-yl}ethoxy)-1H-pyrazol-1-yl]-12,12-dimethyl-2λ^6-thia-3,9,11,18,23-pentaazatetracyclo[17.3.1.111,14.05,10]tetracosa-1(22),5,7,9,19(23),20-hexaene-2,2,4-trione, 3 μM (R)-1-(2,2-difluorobenzo[d][1,3]dioxol-5-yl)-N-(1-(2,3-dihydroxypropyl)-6-fluoro-2-(1-hydroxy-2-methylpropan-2-yl)-1H-indol-5-yl)cyclopropanecarboxamide and 300 nM acute N-[2,4-bis(1,1-dimethylethyl)-5-hydroxyphenyl]-1,4-dihydro-4-oxoquinoline-3-carboxamide triple combination control (% Activity).

[4] = molecular target: T2, CFTR-mediated chloride transport in human intestinal epithelial enteroid cells; assay: Membrane potential dye, Enteroid Assay A; assay type: cell-based
Method: as §1, §2, §3, §4, §5, §6, §7, §8, §9
as §10, with “95% humidity” for “95% humidity,”, “was added,” for “was added”, “with 3” for “with 1”, “μM (S)—N-((6-aminopyridin-2-yl)sulfonyl)-6-(3-fluoro-5-isobutoxyphenyl)-2-(2,2,4-trimethylpyrrolidin-1-yl)nicotinamide,” for “μM (14S)-8-[3-(2-{Dispiro[2.0.2.1]heptan-7-yl}ethoxy)-1H-pyrazol-1-yl]-12,12-dimethyl-2λ^6-thia-3,9,11,18,23-pentaazatetracyclo[17.3.1.111,14.05,10]tetracosa-1(22),5,7,9,19(23),20-hexaene-2,2,4-trione,”

T2 sequence (P13569 with tags, fused parts or gaps DEL508-508): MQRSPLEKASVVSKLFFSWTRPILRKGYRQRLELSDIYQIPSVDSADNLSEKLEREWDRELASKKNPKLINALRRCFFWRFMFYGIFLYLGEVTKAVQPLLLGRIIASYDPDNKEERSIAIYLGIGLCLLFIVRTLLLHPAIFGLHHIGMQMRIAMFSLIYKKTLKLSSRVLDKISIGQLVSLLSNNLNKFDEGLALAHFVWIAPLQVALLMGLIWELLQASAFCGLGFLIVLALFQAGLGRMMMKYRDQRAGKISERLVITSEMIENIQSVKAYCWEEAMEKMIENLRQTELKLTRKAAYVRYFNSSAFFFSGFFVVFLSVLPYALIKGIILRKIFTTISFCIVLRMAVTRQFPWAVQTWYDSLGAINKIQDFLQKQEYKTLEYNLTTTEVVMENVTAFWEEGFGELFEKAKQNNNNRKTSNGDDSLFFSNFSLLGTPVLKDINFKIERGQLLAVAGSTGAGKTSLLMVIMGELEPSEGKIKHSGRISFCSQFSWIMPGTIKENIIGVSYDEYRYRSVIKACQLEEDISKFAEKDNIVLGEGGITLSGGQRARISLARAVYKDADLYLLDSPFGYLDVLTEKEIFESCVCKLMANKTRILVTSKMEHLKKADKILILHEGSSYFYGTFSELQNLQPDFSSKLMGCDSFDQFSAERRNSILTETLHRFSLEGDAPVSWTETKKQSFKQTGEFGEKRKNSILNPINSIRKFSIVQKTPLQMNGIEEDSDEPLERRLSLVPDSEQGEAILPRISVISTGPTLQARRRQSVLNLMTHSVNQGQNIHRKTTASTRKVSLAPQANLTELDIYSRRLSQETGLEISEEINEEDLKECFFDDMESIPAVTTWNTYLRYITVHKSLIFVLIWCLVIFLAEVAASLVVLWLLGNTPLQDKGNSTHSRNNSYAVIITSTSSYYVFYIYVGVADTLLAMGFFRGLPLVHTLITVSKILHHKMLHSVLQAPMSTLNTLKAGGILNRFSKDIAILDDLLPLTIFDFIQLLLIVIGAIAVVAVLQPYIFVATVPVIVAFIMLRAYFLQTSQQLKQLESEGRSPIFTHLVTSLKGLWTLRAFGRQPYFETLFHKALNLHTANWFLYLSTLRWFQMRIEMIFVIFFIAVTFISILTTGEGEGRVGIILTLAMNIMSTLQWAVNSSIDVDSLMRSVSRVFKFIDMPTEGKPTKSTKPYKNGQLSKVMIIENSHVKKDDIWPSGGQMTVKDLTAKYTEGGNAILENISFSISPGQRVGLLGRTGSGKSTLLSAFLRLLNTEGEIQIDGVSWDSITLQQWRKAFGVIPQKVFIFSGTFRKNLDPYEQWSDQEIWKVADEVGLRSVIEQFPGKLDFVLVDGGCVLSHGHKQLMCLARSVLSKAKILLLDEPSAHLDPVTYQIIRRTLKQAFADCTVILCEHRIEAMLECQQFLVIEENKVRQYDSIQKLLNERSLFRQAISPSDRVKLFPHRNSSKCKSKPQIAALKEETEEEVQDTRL
T1 sequence (P13569 with tags, fused parts or gaps DEL508-508): as above

SMILES	EC50 (F508del in NIH 3T3 cells) [nM]	3T3 Max Activity (F508del in NIH 3T3 cells)	other results
COC(=O)CCCN1CCC(C)c2cc(-c3c(C)cccc3C)nc(n2)NS(=O)(=O)c2cccc(c2)C1=O (centres unmarked)	–	–	ring closure, isolated yield ([1]; from COC(=O)CCCNCCC(C)c1cc(-c2c(C)cccc2C)nc(NS(=O)(=O)c2cccc(C(=O)O)c2)n1, NMP, 22.1 mM, 15.0 h): 90%
Cc1cccc(C)c1-c1cc2nc(n1)NS(=O)(=O)c1cccc(c1)C(=O)N(C1CC3(CC(NC(=O)OC(C)(C)C)C3)C1)[C@H](CC(C)C)CC2 (some centres unmarked)	–	–	ring closure, isolated yield ([1]; from Cc1cccc(C)c1-c1cc(CC[C@@H](CC(C)C)NC2CC3(CC(NC(=O)OC(C)(C)C)C3)C2)nc(NS(=O)(=O)c2cccc(C(=O)O)c2)n1, NMP, 27.3 mM, 2.0 h): 88%
Cc1cccc(C)c1-c1cc2nc(n1)NS(=O)(=O)c1cccc(c1)C(=O)N(C1CC3(CCN(C(=O)OC(C)(C)C)CC3)C1)[C@H](CC(C)C)CC2	–	–	ring closure, isolated yield ([1]; from Cc1cccc(C)c1-c1cc(CC[C@@H](CC(C)C)NC2CC3(CCN(C(=O)OC(C)(C)C)CC3)C2)nc(NS(=O)(=O)c2cccc(C(=O)O)c2)n1, NMP, 97.4 mM, 2.0 h): 68%
Cc1cccc(C)c1-c1cc2nc(n1)NS(=O)(=O)c1cccc(c1)NC(=O)CCCCC2 [Compound 1, 6-(2,6-dimethylphenyl)-2,2-dioxo-2 λ6-thia-3,5,15,21-tetrazatricyclo[14.3.1.14,8]henicosa-1(20),4(21),5,7,16,18-hexaen-14-one]	< 1000	+++ (+++ is >60%)	ring closure, yield after HPLC ([2]; from Cc1cccc(C)c1-c1cc(CCCCCC(=O)O)nc(NS(=O)(=O)c2cccc(N)c2)n1, 15-membered ring, 33.5 mM, 2 steps): 40%
Cc1cccc(C)c1-c1cc2nc(n1)NS(=O)(=O)c1cccc(c1)NC(=O)c1cccc(c1)C2 [Compound 2, 5-(2,6-Dimethylphenyl)-9 λ6-thia-6,8,15,23-tetraazatetracyclo [15.3.1.13,7.110,14]tricosa-1(21),3(23),4,6,10,12,14(22),17,19-nonaene-9,9,16-trione]	1000 to 3000	+++ (+++ is >60%)	ring closure, yield after HPLC ([2]; from Cc1cccc(C)c1-c1cc(Cc2cccc(C(=O)O)c2)nc(NS(=O)(=O)c2cccc(N)c2)n1, 14-membered ring, 86.8 mM, 3 steps): 14%
Cc1cccc(C)c1-c1cc2nc(n1)NS(=O)(=O)c1cccc(c1)C(=O)NCCC2c1ccc(C(C)(C)C)cc1 (centres unmarked) [Compound 5, 9-(4-tert-Butylphenyl)-6-(2,6-dimethylphenyl)-2,2-dioxo-2 λ6-thia-3,5,12,19-tetrazatricyclo[12.3.1.14,8]nonadeca-1(18),4(19),5,7,14,16-hexaen-13-one]	–	–	ring closure, isolated yield ([1]; from Cc1cccc(C)c1-c1cc(C(CCN)c2ccc(C(C)(C)C)cc2)nc(NS(=O)(=O)c2cccc(C(=O)O)c2)n1, DMF, 11.6 mM, 21.0 h): 40%; Ent. B Max Activity ([3]; % of chloride transport of triple combination control: 1 μM (14S)-8-[3-(2-{Dispiro[2.0.2.1]heptan-7-yl}ethoxy)-1H-pyrazol-1-yl]-12,12-dimethyl-...-2,2,4-trione, 3 μM tezacaftor, 300 nM acute ivacaftor): +++ (+++ is >60%); EC50 ([3]; enteroid cells, 18-24 hours incubation, acute 10 μM forskolin and 300 nM ivacaftor, read-out: Ent. B EC50): < 1000 nM
Cc1cccc(C)c1-c1cc2nc(n1)NS(=O)(=O)c1cccc(c1)NC(=O)CCCC2 [Compound 12]	1000 to 3000	+++ (+++ is >60%)	–
Cc1cccc(C)c1-c1cc2nc(n1)NS(=O)(=O)c1cccc(c1)NC(=O)CCC2 [Compound 13]	1000 to 3000	+++ (+++ is >60%)	–
Cc1cccc(C)c1-c1cc2nc(n1)NS(=O)(=O)c1cccc(c1)C(=O)O[C@H](c1ccc(C(C)(C)C)cn1)[C@@H](CC(C)C)N2C [Compound 35]	< 1000	+++ (+++ is >60%)	Ent. A Max Activity ([4]; % of chloride transport of triple combination control: 3 μM (S)-N-((6-aminopyridin-2-yl)sulfonyl)-6-(3-fluoro-5-isobutoxyphenyl)-2-(2,2,4-trimethylpyrrolidin-1-yl)nicotinamide, 3 μM tezacaftor, 300 nM acute ivacaftor): ++ (++ is 30-60%); EC50 ([4]; enteroid cells, 18-24 hours incubation, acute 10 μM forskolin and 300 nM ivacaftor, read-out: Ent. A EC50): 1000 to 3000 nM
